The text below walks through data of patent US20120083522A1, “MODULATION OF INFLAMMATORY RESPONSES BY FACTOR XI” (Isis Pharmaceuitcals, inc., priority 2009, published 2012).

In the oligonucleotide strings, read from the 5' end, every base follows the letter of its sugar. An asterisk marks phosphorothioate; unmarked linkages are phosphodiester. Other units and linkages are bracketed, terminal groups are in braces. A string of capitals states the bases alone. e = 2'-O-(2-methoxyethyl) (MOE); [5mC] = 5-methylcytosine; d = 2'-deoxy (DNA)

In one series the test system is human Factor XI mRNA. Put plainly: Dose-dependent inhibition and IC50 in HepG2 cells, microwalk gapmers, electroporation (Example 16). The class given is cell-based. On the procedure:
These gapmers were tested at various doses in HepG2 cells. Cells were plated at a density of 20,000 cells per well and transfected using electroporation with 375 nM, 750 nM, 1,500 nM, 3,000 nM, 6,000 nM and 12,000 nM concentrations of antisense oligonucleotide, as specified in Table 54. After a treatment period of approximately 16 hours, RNA was isolated from the cells and Factor XI mRNA levels were measured by quantitative real-time PCR. Human Factor XI primer probe set RTS 2966 was used to measure mRNA levels. Factor XI mRNA levels were adjusted according to total RNA content, as measured by RIBOGREEN. Results are presented as percent inhibition of Factor XI, relative to untreated control cells.
ISIS 416850, ISIS 416858, ISIS 445522, and ISIS 445531 (see Table 52 above) were re-tested in vitro along with the microwalk gapmers under the same conditions described above.
The chimeric antisense oligonucleotides in Table 53 were designed as 3-8-3 MOE, 4-8-4 MOE, 2-10-2 MOE, 3-10-3 MOE, or 4-10-4 MOE gapmers. The 3-8-3 gapmer is 14 nucleotides in length, wherein the central gap segment is comprised of eight 2′-deoxynucleotides and is flanked on both sides (in the 5′ and 3′ directions) by wings comprising three nucleotides each. The 4-8-4 gapmer is 16 nucleotides in length, wherein the central gap segment is comprised of eight 2′-deoxynucleotides and is flanked on both sides (in the 5′ and 3′ directions) by wings comprising four nucleotides each. The 2-10-2 gapmer is 14 nucleotides in length, wherein the central gap segment is comprised of ten 2′-deoxynucleotides and is flanked on both sides (in the 5′ and 3′ directions) by wings comprising two nucleotides each. The 3-10-3 gapmer is 16 nucleotides in length, wherein the central gap segment is comprised of ten 2′-deoxynucleotides and is flanked on both sides (in the 5′ and 3′ directions) by wings comprising three nucleotides each. The 4-10-4 gapmer is 18 nucleotides in length, wherein the central gap segment is comprised of ten 2′-deoxynucleotides and is flanked on both sides (in the 5′ and 3′ directions) by wings comprising four nucleotides each. For each of the motifs (3-8-3, 4-8-4, 2-10-2, 3-10-3, and 4-10-4), each nucleotide in the 5′ wing segment and each nucleotide in the 3′ wing segment has a 2′-MOE modification. The internucleoside linkages throughout each gapmer are phosphorothioate (P═S) linkages. All cytidine residues throughout each gapmer are 5-methylcytidines. “Human Target start site” indicates the 5′-most nucleotide to which the gapmer is targeted in the human sequence. “Human Target stop site” indicates the 3′-most nucleotide to which the gapmer is targeted in the human sequence. Each gapmer listed in Table 53 is targeted to SEQ ID NO: 1 (GENBANK Accession No. NM_000128.3). Each gapmer is Table 53 is also fully cross-reactive with the rhesus monkey Factor XI gene sequence, designated herein as SEQ ID NO: 274 (exons 1-15 GENBANK Accession No. NW—001118167.1). ‘Rhesus monkey start site’ indicates the 5′-most nucleotide to which the gapmer is targeted in the rhesus monkey sequence. ‘Rhesus monkey stop site’ indicates the 3′-most nucleotide to which the gapmer is targeted to the rhesus monkey sequence.
The first two listed gapmers in Table 54 are the original gapmers (ISIS 416850 and ISIS 416858) from which the remaining gapmers were designed via microwalk and are designated by an asterisk.

In the next series the test system is Factor XI mRNA. Put plainly: Cynomolgus monkeys, 25 mg/kg: liver Factor XI RNA analysis (Example 30). Type of series: in vivo. The conditions noted are these: 25 mg/kg s.c.; day 55; liver. The method, then:
(§1) Groups, each consisting of two male and two female monkeys, were injected subcutaneously with 25 mg/kg of ISIS 416850, ISIS 449709, ISIS 445522, ISIS 449710, ISIS 449707, ISIS 449711, ISIS 449708, 416858 and ISIS 445531. Antisense oligonucleotide was administered to the monkeys at 25 mg/kg three times per week for week 1 and 25 mg/kg twice per week for weeks 2 to 8. A control group, consisting of two male and two female monkeys was injected subcutaneously with PBS according to the same dosing regimen. Body weights were taken 14 days and 7 days before the start of treatment and were then measured weekly throughout the treatment period. Blood samples were collected 14 days and 5 days before the start of treatment and subsequently several times during the dosing regimen for measurement of various hematologic factors. On day 55, the monkeys were euthanized by exsanguination while under deep anesthesia, and organs harvested for further analysis.
On day 55, RNA was extracted from liver tissue for real-time PCR analysis of Factor XI using primer probe set LTS00301. Results are presented as percent inhibition of Factor XI, relative to PBS control.

For the next series, the system named is Factor XI protein. Put plainly: Cynomolgus monkeys: plasma Factor XI protein ELISA (Example 30). The conditions noted are these: 25 mg/kg s.c., plasma ELISA. The class given is in vivo. The method, then:
as §1
Plasma samples from all monkey groups taken on different days were analyzed by a sandwich-style ELISA assay (Affinity Biologicals Inc.) using an affinity-purified polyclonal anti-Factor XI antibody as the capture antibody and a peroxidase-conjugated polyclonal anti-Factor XI antibody as the detecting antibody. Monkey plasma was diluted 1:50 for the assay. Peroxidase activity was expressed by incubation with the substrate o-phenylenediamine. The color produced was quantified using a microplate reader at 490 nm and was considered to be proportional to the concentration of Factor XI in the samples.
The results are presented in Table 148, expressed as percentage reduction relative to that of the PBS control.

Series [1] can be described thus: Tolerability in CD1 mice: body and organ weights (Example 21). The class given is in vivo. The conditions noted are these: 50 mg/kg s.c. twice per week for 6 weeks, percentage of the body weight.
Description: Body weight was measured at the onset of the study and subsequently twice per week. The body weights of the mice are presented in Table 87 and are expressed increase in grams over the PBS control weight taken before the start of treatment. Liver, spleen, and kidney weights were measured at the end of the study, and are also presented in Table 87 as percentage of the body weight.
A short description of series [2]: Tolerability in Sprague-Dawley rats: hematology assays (Example 23). The class given is in vivo. Set-up: RBC / WBC / Neutrophil / Lymphocyte / Platelets: unit not given here. To be noted: blood.
Series [3] in a line: Tolerability in CD1 mice: body and organ weight (Example 25). The class given is in vivo. The conditions noted are these: 50 mg/kg s.c. twice per week for 6 weeks; for Kidney weight as percentage of body weight / Liver weight as percentage of body weight / Spleen weight as percentage of body weight: end of study.

As to “449710 (antisense e[5mC]*eA*e[5mC]*dA*dG*dT*dT*dT*d[5mC]*dT*dG*dG*d[5mC]*eA*eG*eG) [compound 449710]”, the “percent inhibition of Factor XI mRNA” value in the series on human Factor XI mRNA (electroporation, 375 nM) is 2%; in the series with human Factor XI mRNA (electroporation, 750 nM), 21%; in the series on human Factor XI mRNA (electroporation, 1,500 nM), 52%; in the series with human Factor XI mRNA (electroporation, 3,000 nM), 70%; in the series on human Factor XI mRNA (electroporation, 6,000 nM), 82%; in the series on human Factor XI mRNA (electroporation, 12,000 nM), 87%. The “% inhibition of Factor XI mRNA in liver relative to the PBS control” value with Factor XI mRNA came to 52%. Further, the “Inhibition of Factor XI protein relative to the PBS control” value was found to be 10% in the series on Factor XI protein (Day 10); 14% in the series on Factor XI protein (Day 17); 17% with Factor XI protein (Day 24); 25% in the series with Factor XI protein (Day 31); 20% in the series on Factor XI protein (Day 38); 23% in the series with Factor XI protein (Day 45). The “Inhibition of Factor XI protein relative to the PBS control” value in the series with Factor XI protein (Day 52) is 4%; in the series on Factor XI protein (Day 55) it was 24%; in the series on Factor XI protein (Day −5), 0%; with Factor XI protein (Day −14), 1%.

As to “ISIS 416856: gapmer of Table 8 (antisense eG*eG*e[5mC]*eA*eT*dT*dG*dG*dT*dG*d[5mC]*dA*d[5mC]*dA*dG*eT*eT*eT*e[5mC]*eT)”, the Kidney weight in series [1] amounted to 1.4%. Further, in series [2], the RBC is 7.7 and the WBC worked out at 19.

Take “ISIS 445530: microwalk gapmer of Table 51 (antisense eG*e[5mC]*eA*eT*eT*dG*dG*dT*dG*d[5mC]*dA*d[5mC]*dA*eG*eT*eT*eT*e[5mC])”: in series [3], the “Body weight (increase over PBS control weight before start of treatment)” value came out at 11 g, the “Kidney weight as percentage of body weight” value worked out at 1.5%, the “Liver weight as percentage of body weight” value was determined as 6% and the “Spleen weight as percentage of body weight” value is given as 0.5%.

Consider “449707 (antisense e[5mC]*eA*e[5mC]*eA*dG*dT*dT*dT*d[5mC]*dT*dG*dG*e[5mC]*eA*eG*eG) [compound 449707]”, for which the “percent inhibition of Factor XI mRNA” value amounted to 7% in the series on human Factor XI mRNA (electroporation, 375 nM); 35% in the series with human Factor XI mRNA (electroporation, 750 nM); 63% with human Factor XI mRNA (electroporation, 1,500 nM); 73% in the series on human Factor XI mRNA (electroporation, 3,000 nM); 85% with human Factor XI mRNA (electroporation, 6,000 nM); 91% with human Factor XI mRNA (electroporation, 12,000 nM). Further, the “% inhibition of Factor XI mRNA in liver relative to the PBS control” value in the series with Factor XI mRNA is 47%. Moreover, the “Inhibition of Factor XI protein relative to the PBS control” value with Factor XI protein (Day 10) is 16%; in the series on Factor XI protein (Day 17), 19%; in the series with Factor XI protein (Day 24) it was 21%; in the series on Factor XI protein (Day 31), 29%; with Factor XI protein (Day 38) it was 28%; with Factor XI protein (Day 45), 35%. For the same substance, the “Inhibition of Factor XI protein relative to the PBS control” value in the series with Factor XI protein (Day 52) was 29%; with Factor XI protein (Day 55), 32%; in the series with Factor XI protein (Day −5), 0%; in the series with Factor XI protein (Day −14), 0%.

Turning to “449709 (antisense eG*e[5mC]*eA*e[5mC]*dA*dG*dT*dT*dT*d[5mC]*dT*dG*dG*d[5mC]*eA*eG*eG*e[5mC]) [compound 449709]”, the “percent inhibition of Factor XI mRNA” value is 52% in the series on human Factor XI mRNA (electroporation, 375 nM); 71% in the series on human Factor XI mRNA (electroporation, 750 nM); 80% with human Factor XI mRNA (electroporation, 1,500 nM); 87% in the series on human Factor XI mRNA (electroporation, 3,000 nM); 92% in the series on human Factor XI mRNA (electroporation, 6,000 nM); 95% in the series with human Factor XI mRNA (electroporation, 12,000 nM). Further, the “% inhibition of Factor XI mRNA in liver relative to the PBS control” value in the series with Factor XI mRNA was found to be 69%. In addition, the “Inhibition of Factor XI protein relative to the PBS control” value is 27% in the series with Factor XI protein (Day 10); 35% with Factor XI protein (Day 17); 44% in the series on Factor XI protein (Day 24); 45% with Factor XI protein (Day 31); 46% with Factor XI protein (Day 38); 48% in the series on Factor XI protein (Day 45). Besides, the “Inhibition of Factor XI protein relative to the PBS control” value in the series with Factor XI protein (Day 52) came out at 47%; in the series with Factor XI protein (Day 55), 50%; in the series on Factor XI protein (Day −5), 0%; with Factor XI protein (Day −14), 1%.

For “ISIS 445532: microwalk gapmer of Table 51 (antisense e[5mC]*eG*eG*e[5mC]*eA*dT*dT*dG*dG*dT*dG*d[5mC]*dA*e[5mC]*eA*eG*eT*eT)”, in series [3], the “Body weight (increase over PBS control weight before start of treatment)” value was 10 g, the “Kidney weight as percentage of body weight” value turned out to be 1.6%, the “Liver weight as percentage of body weight” value amounted to 6% and the “Spleen weight as percentage of body weight” value was determined as 0.4%.
